Measured values reported in ChEMBL document CHEMBL1201862, “PubChem BioAssay data set” (2004).
Activity calls are given as the source filed them.

What was measured:
[1] = Luminescence Cell-Based Dose Confirmation HTS to Identify Activators of 5'UTR Stem-Loop Driven Alpha-Synuclein mRNA Translation in H4 Neuroglioblastoma Cells. [Related pubchem assays: 1829 (Project Summary), 1814 (Primary HTS)]; format: functional
[2] = Luminescence Cell-Based Dose Response HTS to Identify Activators of Luciferase Translation or Activity in H4 […] Cells. [Related pubchem assays: 1829 (Project Summary), 1814 (Primary HTS)]; format: functional
cells [3] = format: functional, cell-based
H4 = assay: Luminescence Cell-Based Dose Response HTS to Identify Activators of 5'UTR Stem-Loop Driven Prion Protein mRNA Translation in H4 Neuroglioblastoma Cells. [Related pubchem assays: 1829 (Project Summary), 1814 (Primary HTS)]; format: functional; conditions: Homo sapiens
cells [4] = format: functional, cell-based; remark: listed apart in the source
HEK293 [5] = assay: cells; format: functional, cell-based; conditions: Homo sapiens
[6] = target: Nuclear receptor subfamily 0 group B member 1 (Homo sapiens, UniProt P51843); assay: Luminescence-based cell-based high throughput dose response assay for inhibitors of the orphan nuclear receptor subfamily 0, group B, member 1 (DAX1; NR0B1). [Related pubchem assays (depositor defined):AID504766, AID504790]; format: functional
[7] = viability loss in HepG2 hepatoma cells – cell-based, ATP luminescence, cherry-pick, activator set 2, cytotoxicity control, dose response (AID 1053143); format: functional
CHO-K1 = assay: (§1) Counterscreen for antagonists of the orexin 1 receptor (OX1R; HCRTR1): Homogeneous time resolved fluorescence (HTRF)-based cell-based dose response assay to identify antagonists of the parental CHO-K1 cell line. [Related pubchem assays (depositor defined):AID434989, AID435008, AID463079, AID485270, AID492963, AID492964, AID492965, AID493232, AID504699, AID504701]; format: functional; conditions: Cricetulus griseus
[8] = as §1, with “Fluorescence-based” for “Homogeneous time resolved fluorescence (HTRF)-based”, “cell-based high throughput” for “cell-based”, “CHO” for “CHO-K1”; format: functional
[9] = target: T1, Orexin/Hypocretin receptor type 1 (Homo sapiens, UniProt O43613); assay: Homogeneous Time Resolved Fluorescence (HTRF)-based cell-based high throughput dose response assay for antagonists of the orexin 1 receptor (OX1R; HCRTR1). [Related pubchem assays (depositor defined):AID434989, AID435008, AID463079, AID485270, AID492963, AID492964, AID492965, AID493232, AID504717, AID504718]; format: functional
[10] = target: T1, Orexin/Hypocretin receptor type 1; assay: Fluorescence-based cell-based high throughput dose response assay for antagonists of the orexin 1 receptor (OX1R; HCRTR1). [Related pubchem assays (depositor defined):AID434989, AID435008, AID463079, AID485270, AID492963, AID492964, AID492965, AID493232, AID504717, AID504718]; format: functional
Orexin receptor type 2 [11] = target: T2, Orexin receptor type 2 (Homo sapiens, UniProt O43614); assay: Counterscreen assay for antagonists of the orexin 1 receptor (OX1R; HCRTR1): Fluorescence-based cell-based dose response assay for antagonists of the orexin 2 receptor (OX2R; HCRTR2), run by assay provider.; format: functional
Orexin receptor type 2 [12] = target: T2, Orexin receptor type 2; assay: Counterscreen assay for antagonists of the orexin 1 receptor (OX1R; HCRTR1): Homogeneous Time Resolved Fluorescence (HTRF)-based cell-based dose response assay for antagonists of the orexin 2 receptor (OX2R; HCRTR2), run by assay provider.; format: functional
[13] = target: T3, Heat shock factor protein 1 (Mus musculus, UniProt P38532); assay: decrease of HSF1-responsive luciferase luminescence – cell-based, NIH3T3, dose retest, confirmation (AID 2382); format: functional;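 also: NIH3T3 fibroblasts with HSF1-driven luciferase reporter stressed by proteasome inhibitor MG132; luminescence from HSF1-driven luciferase expression after 8 hours of MG132 stress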
T3 sequence (P38532 whole entry): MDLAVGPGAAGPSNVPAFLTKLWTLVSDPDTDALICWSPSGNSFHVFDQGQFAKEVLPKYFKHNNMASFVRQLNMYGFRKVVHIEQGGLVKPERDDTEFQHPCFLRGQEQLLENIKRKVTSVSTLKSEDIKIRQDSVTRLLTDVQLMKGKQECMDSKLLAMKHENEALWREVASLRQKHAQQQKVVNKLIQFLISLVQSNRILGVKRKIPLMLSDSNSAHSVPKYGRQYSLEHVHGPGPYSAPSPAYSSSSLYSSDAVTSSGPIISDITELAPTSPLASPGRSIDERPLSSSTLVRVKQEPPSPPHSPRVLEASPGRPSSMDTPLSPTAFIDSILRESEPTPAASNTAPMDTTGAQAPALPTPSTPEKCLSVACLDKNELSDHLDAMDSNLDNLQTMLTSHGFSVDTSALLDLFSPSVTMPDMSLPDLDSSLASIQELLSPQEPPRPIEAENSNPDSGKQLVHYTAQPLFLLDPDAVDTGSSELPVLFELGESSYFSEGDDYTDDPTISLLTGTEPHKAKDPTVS

HEK293 [14] = assay: EBV LMP1 TES2 canonical NF-kB signalling blockers – cell-based, HEK293, luciferase, cherry-pick, dose response (AID 588343); format: functional; conditions: Homo sapiens
[15] = target: Latent membrane protein 1 (Human herpesvirus 4 (strain B95-8), UniProt P03230); assay: LMP1 TES1 pathway selectivity over dsRED control – imaging, HEK293T, dual-color eGFP/dsRED, cherry-picks, selectivity assay for LMP1 NF-kB inhibitor project, dose response (AID 588398); format: functional, cell-based
[16] = target: Luciferin 4-monooxygenase (Photuris pensylvanica, UniProt Q27757); assay: inhibition of Cell Titer Glo luciferase signal – biochemical, luminescence, cherry-picks, counter-screen for HSF-1 reporter inhibitor project, dose response (AID 588847)
[17] = target: Dual specificity tyrosine-phosphorylation-regulated kinase 1A (Rattus norvegicus, UniProt Q63470); format: biochemical, Homo sapiens
[18] = blockers of HIV-1 envelope-mediated cell-cell fusion – cherry-pick, dose response (AID 652057); format: functional, cell-based
[19] = off-target signal loss in HeLa-CEM21 co-culture – HeLa F-luc CTL cells, cherry-picked, counter-screen for HIV-1 Env fusion inhibitor project, dose response (AID 652040); format: functional, cell-based;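 also: potency for signal decrease marking cytotoxic or nonspecific inhibition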
[20] = HIV-1 AD8 envelope cell-cell fusion blockers – cherry-pick, dose response (AID 652062); format: functional, cell-based;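 also: luciferase signal from cell-cell fusion driven by HIV-1 clade B AD8 Env; potency is for inhibitors of fusion seen as a drop in luminescence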
[21] = target: T4, Short transient receptor potential channel 4 (Mus musculus, UniProt Q9QUQ5); assay: SAR Analysis for the identification of selective inhibits of the transient receptor potential cation channel C4 (TRPC4): Automated Electrophysiology. [Related pubchem assays (depositor defined):AID2256]; format: functional
T4 sequence (Q9QUQ5 whole entry): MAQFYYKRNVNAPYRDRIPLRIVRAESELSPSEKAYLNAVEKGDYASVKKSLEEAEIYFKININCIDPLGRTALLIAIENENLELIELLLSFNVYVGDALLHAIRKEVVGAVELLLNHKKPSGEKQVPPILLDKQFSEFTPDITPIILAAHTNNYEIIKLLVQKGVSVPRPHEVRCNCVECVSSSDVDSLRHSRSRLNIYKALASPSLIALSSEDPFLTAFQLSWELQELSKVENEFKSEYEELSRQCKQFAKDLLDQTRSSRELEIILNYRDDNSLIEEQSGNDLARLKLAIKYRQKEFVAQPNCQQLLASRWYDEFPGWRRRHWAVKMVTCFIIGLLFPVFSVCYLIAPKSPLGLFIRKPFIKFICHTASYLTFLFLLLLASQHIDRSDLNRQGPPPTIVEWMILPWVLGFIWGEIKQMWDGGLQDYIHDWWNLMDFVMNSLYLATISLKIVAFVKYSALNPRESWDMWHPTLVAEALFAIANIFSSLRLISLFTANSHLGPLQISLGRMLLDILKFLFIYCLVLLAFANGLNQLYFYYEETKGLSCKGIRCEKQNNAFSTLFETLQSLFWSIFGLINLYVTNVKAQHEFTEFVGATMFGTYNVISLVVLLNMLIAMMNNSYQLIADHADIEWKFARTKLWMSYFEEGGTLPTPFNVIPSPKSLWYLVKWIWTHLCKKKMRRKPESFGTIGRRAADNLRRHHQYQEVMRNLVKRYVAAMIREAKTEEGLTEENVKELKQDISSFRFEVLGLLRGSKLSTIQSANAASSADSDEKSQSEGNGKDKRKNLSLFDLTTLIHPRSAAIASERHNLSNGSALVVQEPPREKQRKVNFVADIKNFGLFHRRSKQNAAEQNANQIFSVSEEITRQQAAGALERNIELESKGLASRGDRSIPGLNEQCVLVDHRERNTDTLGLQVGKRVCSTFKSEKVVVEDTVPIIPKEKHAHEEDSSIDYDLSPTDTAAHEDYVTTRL

[22] = target: T4, Short transient receptor potential channel 4; assay: mouse TRPC4 block via Gq-coupled stimulation – cell-based, acetylcholine stimulus, HEK293 TRPC4, Fluo-4, SAR follow-up (AID 492996); format: functional
[23] = target: T4, Short transient receptor potential channel 4; assay: SAR Analysis for the identification of selective inhibitors of the transient receptor potential cation channel C4 (TRPC4): TRPC4 Serotonin Receptor CRC MPD assay. [Related pubchem assays (depositor defined):AID2247, AID2256]; format: functional
[24] = target: Short transient receptor potential channel 6 (Mus musculus, UniProt Q61143); assay: mouse TRPC6 channel blockers, concentration series – HEK293 cells, membrane potential dye, IC50, selectivity assay for selective TRPC4 inhibitor project, dose response (AID 492987); format: functional, cell-based
[25] = target: T4, Short transient receptor potential channel 4; assay: potency of mouse TRPC4 calcium flux blockers – cell-based, HEK293 TRPC4/mu-opioid, DAMGO stimulus, Fluo-4, dose response (AID 492994); format: functional
Cytochrome P450 2C19 = Cytochrome P450 2C19 (Homo sapiens, UniProt P33261); assay: Cytochrome panel assay with activity outcomes. Panel member name: p450-cyp2c19 Compounds with AC50 equal or less than 10 uM are considered active; format: functional; conditions: read-out: AC50
Cytochrome P450 1A2 = target: T5, Cytochrome P450 1A2 (Homo sapiens, UniProt P05177);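 also: PubChem cytochrome P450 panel assay, CYP1A2 panel member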
T5 sequence (P05177 whole entry): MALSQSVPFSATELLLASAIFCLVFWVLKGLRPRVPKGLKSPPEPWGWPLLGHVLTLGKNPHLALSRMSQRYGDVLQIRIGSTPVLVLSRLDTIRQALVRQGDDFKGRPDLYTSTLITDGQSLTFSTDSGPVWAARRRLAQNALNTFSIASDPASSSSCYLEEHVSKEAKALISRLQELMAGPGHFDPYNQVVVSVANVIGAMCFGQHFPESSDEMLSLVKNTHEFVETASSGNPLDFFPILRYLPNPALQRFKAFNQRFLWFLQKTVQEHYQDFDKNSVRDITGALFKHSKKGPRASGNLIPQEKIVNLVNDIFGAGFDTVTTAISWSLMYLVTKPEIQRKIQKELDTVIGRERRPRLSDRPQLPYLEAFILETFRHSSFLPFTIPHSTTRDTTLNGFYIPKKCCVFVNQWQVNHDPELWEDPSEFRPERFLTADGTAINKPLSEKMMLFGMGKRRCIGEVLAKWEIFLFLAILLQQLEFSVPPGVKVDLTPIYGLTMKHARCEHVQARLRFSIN

[26] = target: Voltage-gated inwardly rectifying potassium channel KCNH2 (Homo sapiens, UniProt Q12809); conditions: Potency;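 also: confirmatory quantitative high-throughput screen measuring inhibition of hERG channel activity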
Sequence of Voltage-gated inwardly rectifying potassium channel KCNH2 (Q12809 whole entry): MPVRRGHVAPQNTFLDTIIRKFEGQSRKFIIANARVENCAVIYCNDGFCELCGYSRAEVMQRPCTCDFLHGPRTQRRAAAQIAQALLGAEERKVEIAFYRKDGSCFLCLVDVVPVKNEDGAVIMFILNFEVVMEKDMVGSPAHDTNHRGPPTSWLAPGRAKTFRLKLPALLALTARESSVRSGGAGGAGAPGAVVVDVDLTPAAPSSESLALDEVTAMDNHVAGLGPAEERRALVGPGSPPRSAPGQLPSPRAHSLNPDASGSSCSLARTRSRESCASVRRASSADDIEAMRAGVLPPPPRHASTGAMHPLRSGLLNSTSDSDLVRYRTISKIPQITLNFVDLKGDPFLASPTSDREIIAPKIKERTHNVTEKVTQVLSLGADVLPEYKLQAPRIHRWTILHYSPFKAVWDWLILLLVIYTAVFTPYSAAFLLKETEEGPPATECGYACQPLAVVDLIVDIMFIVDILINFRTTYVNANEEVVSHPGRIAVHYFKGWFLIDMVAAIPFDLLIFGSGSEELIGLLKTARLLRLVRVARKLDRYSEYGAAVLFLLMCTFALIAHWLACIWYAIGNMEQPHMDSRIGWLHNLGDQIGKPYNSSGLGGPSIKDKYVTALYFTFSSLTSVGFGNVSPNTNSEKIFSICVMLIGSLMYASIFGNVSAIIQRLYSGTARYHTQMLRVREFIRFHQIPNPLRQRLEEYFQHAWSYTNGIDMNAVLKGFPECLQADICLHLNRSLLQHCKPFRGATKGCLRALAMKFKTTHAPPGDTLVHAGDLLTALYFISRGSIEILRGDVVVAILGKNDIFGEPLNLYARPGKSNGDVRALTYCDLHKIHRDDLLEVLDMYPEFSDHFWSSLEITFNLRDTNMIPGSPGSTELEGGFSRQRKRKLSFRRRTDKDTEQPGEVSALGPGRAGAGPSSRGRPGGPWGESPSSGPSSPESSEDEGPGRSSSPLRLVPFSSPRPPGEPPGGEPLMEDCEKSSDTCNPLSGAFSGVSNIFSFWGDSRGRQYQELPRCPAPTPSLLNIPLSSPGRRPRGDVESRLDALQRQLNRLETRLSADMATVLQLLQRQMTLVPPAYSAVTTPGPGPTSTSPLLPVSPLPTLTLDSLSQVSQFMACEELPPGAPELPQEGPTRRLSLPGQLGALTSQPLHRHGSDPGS

T2 sequence (O43614 whole entry): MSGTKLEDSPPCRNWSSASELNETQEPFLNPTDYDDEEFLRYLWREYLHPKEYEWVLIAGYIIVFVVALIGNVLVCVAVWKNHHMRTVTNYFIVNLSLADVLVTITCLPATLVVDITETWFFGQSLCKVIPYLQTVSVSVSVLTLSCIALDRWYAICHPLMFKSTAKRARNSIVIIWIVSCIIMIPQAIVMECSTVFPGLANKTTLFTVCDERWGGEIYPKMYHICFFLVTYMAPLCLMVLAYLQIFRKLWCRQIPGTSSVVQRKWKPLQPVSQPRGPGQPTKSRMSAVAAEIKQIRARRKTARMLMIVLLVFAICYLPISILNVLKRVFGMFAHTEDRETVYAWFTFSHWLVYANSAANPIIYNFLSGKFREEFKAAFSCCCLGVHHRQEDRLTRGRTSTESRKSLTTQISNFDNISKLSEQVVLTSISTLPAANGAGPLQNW
T1 sequence (O43613 whole entry): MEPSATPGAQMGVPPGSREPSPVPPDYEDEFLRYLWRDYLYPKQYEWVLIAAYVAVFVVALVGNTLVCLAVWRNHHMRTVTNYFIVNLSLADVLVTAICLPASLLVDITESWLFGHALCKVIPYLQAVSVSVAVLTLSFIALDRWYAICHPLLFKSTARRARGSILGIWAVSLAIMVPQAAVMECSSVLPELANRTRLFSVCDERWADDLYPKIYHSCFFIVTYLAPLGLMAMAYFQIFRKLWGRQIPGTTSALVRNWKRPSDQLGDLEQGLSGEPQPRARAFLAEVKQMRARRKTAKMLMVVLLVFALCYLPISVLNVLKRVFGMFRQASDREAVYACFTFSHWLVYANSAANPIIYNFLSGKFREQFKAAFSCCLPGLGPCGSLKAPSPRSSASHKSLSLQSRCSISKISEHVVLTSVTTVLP
Sequence of Latent membrane protein 1 (P03230 whole entry): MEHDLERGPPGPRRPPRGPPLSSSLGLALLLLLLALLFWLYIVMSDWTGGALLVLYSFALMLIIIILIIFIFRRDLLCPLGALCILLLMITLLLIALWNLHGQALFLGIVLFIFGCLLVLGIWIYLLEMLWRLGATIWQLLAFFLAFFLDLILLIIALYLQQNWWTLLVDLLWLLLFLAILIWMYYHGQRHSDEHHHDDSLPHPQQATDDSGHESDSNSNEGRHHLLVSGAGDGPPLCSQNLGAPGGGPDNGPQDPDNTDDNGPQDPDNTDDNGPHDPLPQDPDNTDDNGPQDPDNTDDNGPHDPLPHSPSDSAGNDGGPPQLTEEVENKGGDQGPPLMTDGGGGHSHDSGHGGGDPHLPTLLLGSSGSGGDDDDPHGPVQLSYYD
Sequence of Cytochrome P450 2C19 (P33261 whole entry): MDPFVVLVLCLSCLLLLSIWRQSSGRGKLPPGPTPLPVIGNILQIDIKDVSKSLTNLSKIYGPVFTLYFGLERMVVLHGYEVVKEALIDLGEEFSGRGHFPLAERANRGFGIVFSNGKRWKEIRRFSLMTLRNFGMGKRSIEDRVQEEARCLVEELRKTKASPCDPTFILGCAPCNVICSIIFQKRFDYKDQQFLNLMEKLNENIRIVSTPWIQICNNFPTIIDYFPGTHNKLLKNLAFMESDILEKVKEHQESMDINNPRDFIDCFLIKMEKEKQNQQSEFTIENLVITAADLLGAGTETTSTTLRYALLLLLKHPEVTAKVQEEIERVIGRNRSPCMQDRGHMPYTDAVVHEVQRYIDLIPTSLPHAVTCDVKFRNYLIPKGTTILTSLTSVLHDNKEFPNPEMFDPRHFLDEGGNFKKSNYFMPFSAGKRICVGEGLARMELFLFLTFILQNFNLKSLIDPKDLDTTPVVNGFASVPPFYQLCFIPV
Sequence of Nuclear receptor subfamily 0 group B member 1 (P51843 whole entry): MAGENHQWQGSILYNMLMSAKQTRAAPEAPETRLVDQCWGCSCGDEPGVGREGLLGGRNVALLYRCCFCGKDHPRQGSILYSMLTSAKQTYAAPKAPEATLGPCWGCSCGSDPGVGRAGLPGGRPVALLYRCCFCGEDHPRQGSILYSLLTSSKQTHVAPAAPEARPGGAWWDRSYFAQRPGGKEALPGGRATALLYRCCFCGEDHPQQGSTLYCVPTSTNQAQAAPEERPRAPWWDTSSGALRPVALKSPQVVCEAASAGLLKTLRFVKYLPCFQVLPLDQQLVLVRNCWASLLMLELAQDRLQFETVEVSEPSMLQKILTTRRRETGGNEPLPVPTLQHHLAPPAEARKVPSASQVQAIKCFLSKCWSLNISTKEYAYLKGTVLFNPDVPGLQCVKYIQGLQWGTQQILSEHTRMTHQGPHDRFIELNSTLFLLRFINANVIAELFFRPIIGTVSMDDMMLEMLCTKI
Sequence of Luciferin 4-monooxygenase (Q27757 whole entry): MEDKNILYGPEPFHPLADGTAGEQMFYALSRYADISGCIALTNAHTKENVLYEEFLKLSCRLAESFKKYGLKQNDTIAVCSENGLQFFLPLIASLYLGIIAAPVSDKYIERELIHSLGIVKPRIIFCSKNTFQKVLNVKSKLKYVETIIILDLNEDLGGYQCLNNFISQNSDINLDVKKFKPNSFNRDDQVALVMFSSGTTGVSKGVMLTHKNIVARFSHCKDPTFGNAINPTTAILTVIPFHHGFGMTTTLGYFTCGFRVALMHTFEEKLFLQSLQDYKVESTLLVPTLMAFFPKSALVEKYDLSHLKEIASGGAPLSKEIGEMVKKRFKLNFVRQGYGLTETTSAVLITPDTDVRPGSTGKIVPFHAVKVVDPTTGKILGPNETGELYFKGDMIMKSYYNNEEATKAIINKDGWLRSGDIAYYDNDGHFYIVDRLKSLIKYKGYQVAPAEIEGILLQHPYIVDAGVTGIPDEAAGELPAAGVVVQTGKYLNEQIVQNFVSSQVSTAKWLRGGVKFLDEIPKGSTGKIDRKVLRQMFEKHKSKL
Sequence of Short transient receptor potential channel 6 (Q61143 whole entry): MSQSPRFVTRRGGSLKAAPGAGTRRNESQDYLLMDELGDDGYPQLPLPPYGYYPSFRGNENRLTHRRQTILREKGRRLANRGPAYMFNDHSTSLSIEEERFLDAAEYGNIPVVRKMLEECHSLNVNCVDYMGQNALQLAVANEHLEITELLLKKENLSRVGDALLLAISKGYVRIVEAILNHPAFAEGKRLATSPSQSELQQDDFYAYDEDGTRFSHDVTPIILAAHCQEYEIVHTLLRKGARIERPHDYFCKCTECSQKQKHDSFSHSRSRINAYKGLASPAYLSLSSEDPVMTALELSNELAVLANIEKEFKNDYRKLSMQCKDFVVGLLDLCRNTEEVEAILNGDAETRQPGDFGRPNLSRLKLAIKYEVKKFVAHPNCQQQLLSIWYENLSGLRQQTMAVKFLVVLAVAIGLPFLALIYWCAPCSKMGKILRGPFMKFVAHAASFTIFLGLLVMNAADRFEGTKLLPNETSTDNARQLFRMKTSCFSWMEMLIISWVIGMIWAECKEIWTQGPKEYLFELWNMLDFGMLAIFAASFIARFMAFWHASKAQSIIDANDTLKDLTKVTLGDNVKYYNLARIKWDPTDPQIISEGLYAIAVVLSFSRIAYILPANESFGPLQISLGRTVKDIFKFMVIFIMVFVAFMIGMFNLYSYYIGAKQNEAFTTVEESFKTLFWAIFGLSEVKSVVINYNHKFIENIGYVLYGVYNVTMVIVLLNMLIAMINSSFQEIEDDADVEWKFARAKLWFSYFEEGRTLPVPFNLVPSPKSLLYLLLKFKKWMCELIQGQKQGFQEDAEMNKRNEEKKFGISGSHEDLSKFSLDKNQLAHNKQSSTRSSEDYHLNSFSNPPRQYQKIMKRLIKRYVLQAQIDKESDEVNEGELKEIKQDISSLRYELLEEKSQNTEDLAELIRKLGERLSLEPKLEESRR

Question: With `O=C(Nc1ccccc1O)c1ccc(NC(=O)C2CC2)cc1` as the compound, how does the EC50 [1] read?
Answer: 10.5 µM (active)

Question: What about the EC50 [2] of the same compound?
Answer: 17.3 µM (active)

Question: What about the EC50 (cells [3]) of the same compound?
Answer: 11.2 µM (active)

Question: And the EC50 (H4)?
Answer: 12.3 µM (active)

Question: And the EC50 (cells [4])?
Answer: 51.3 µM (active)

Question: What about the IC50 (HEK293 [5]) of the same compound?
Answer: 1.91 µM (active)

Question: And the IC50 [6]?
Answer: > 67.6 µM (inactive)

Question: And the AC50 [7]?
Answer: 18.8 µM (active)

Question: For `CNc1oc(-c2cccc3ccccc23)nc1C#N`, which IC50 (CHO-K1) is on record?
Answer: > 66.2 µM (inactive)

Question: And the IC50 [8]?
Answer: > 49.7 µM (inactive)

Question: And the IC50 [9]?
Answer: 0.887 µM (active)

Question: What about the IC50 [10] of the same compound?
Answer: 3.48 µM (active)

Question: What about the IC50 (Orexin receptor type 2 [11]) of the same compound?
Answer: > 88.8 µM (inactive)

Question: What about the IC50 (Orexin receptor type 2 [12]) of the same compound?
Answer: > 50 µM (inactive)

Question: Which EC50 [13] does the source give for `CC1=C(C(=O)OCc2ccc3c(c2)OCO3)C(c2ccc(F)cc2)NC(=O)N1` (stereo not given) here?
Answer: < 0.16 µM (active)

Question: What about the AC50 (HEK293 [14]) of the same compound?
Answer: 3.36 µM (active)

Question: What about the AC50 [15] of the same compound?
Answer: 9.67 µM (active)

Question: And the AC50 [16]?
Answer: > 52 µM (inactive)

Question: What about the AC50 [17] of the same compound?
Answer: 1.85 µM (active)

Question: What about the AC50 [18] of the same compound?
Answer: 0.284 µM (active)

Question: And the AC50 [19]?
Answer: 0.576 µM (active)

Question: What about the AC50 [20] of the same compound?
Answer: 1.47 µM (active)

Question: With `CCc1ccc2nc(N3CCCC3)cc(C)c2c1` as the compound, how does the IC50 [21] read?
Answer: 2.05 µM (active)

Question: And the IC50 [22]?
Answer: 9.52 µM (active)

Question: And the IC50 [23]?
Answer: 4.23 µM (active)

Question: What about the IC50 [24] of the same compound?
Answer: 14.1 µM (active)

Question: And the IC50 [25]?
Answer: 0.483 µM (active)

Question: Which AC50 (Cytochrome P450 2C19) does the source give for `COc1ccc2c(c1)c(CC(=O)N1CCOCC1)c(C)n2C(=O)c1ccc(Cl)cc1` [INDOMETHACIN MORPHOLINYLAMIDE] here?
Answer: 1.58 µM (inconclusive)

Question: And the AC50 (Cytochrome P450 1A2)?
Answer: 25.1 µM (inconclusive)

Question: And the AC50 [26]?
Answer: 35.5 µM (inconclusive)
